{
  "source": "patent US20020142940A1",
  "about": "“Method of inhibiting viral infection using HMG-COA reductase inhibitors and isoprenylation inhibitors” (priority 2000, published 2002)",
  "key": {"HIV": {"test_system": "HIV", "conditions": "cultured MT-2 cells; reported in U.S. Ser. No. 09/129,565; cited from earlier work"}, "RSV [1]": {"test_system": "RSV", "assay": "RSV replication in mice, lung plaque assay", "format": "in vivo", "conditions": "for peak RSV titer in the lung: mice, oral gavage beginning three days prior to infection, 1 mg/day lovastatin or 50 mg/day gemfibrozil, lungs day 4"}, "RSV [2]": {"test_system": "RSV", "assay": "RSV-induced weight loss and illness in mice", "format": "in vivo", "conditions": "for peak percent weight loss on day 8 post infection: comparison PBS, gemfibrozil, lovastatin treated RSV-infected mice"}, "vaccinia virus": {"test_system": "vaccinia virus", "format": "in vivo, mice", "conditions": "1 mg/day lovastatin or 50 mg/day gemfibrozil oral gavage beginning three days prior to infection, vs PBS"}, "[3]": {"assay": "Weight loss in uninfected treated mice", "format": "in vivo", "conditions": "1 mg/day lovastatin or 50 mg/day gemfibrozil for 11 days"}, "HPIV-3 [4]": {"test_system": "HPIV-3", "assay": "HPIV-3 replication in HEp-2 cells, plaque assay", "format": "cell-based", "conditions": "for rescue of lovastatin inhibition of HPIV-3 replication: added to 10 μM lovastatin treated cells, 50 μM GGP, mevalonolactone or FP, cholesterol concentration not given; for reduction of HPIV-3 replication: 5 μM, 24 hrs treatment, MOI 0.1, titer 2 days after infection"}, "HPIV-3 [5]": {"test_system": "HPIV-3", "assay": "HPIV-3 syncytia formation in HEp-2 cells", "format": "cell-based", "conditions": "for rescue of lovastatin inhibition of HPIV-3 syncytia formation: added to lovastatin treated cells"}, "HIV-1": {"test_system": "HIV-1", "conditions": "human H9 lymphocytic cell line, early stages of infection; cited from earlier work"}, "[6]": {"test_system": "RSV glycoproteins F, G and SH", "format": "cell-based"}, "RSV [7]": {"test_system": "RSV", "assay": "RSV replication in HEp-2 cell culture, plaque assay", "format": "cell-based", "protocol": "FIG. 5—Lovastatin eliminates RSV replication in cell culture. HEp-2 cell monolayers grown in 96 well plates were treated with either 10 μM lovastatin or left untreated beginning 24 hr prior to RSV infection (moi 0.1). Virus titer was measured for 8 consecutive days after RSV infection daily by plaque assay for eight days post RSV infection by harvesting the entire contents of a well and performing plaque assays in triplicate. RSV growth curve in untreated cells (□) and in cells treated with 10 μM lovastatin ( ? ). Error bars represent standard deviation.\nVirus and Cells. The A2 strain of RSV was provided by Dr. R. Chanock, NIH, Bethesda, Md. RSV stocks were prepared as previously described (Graham et al., 1988). HEp-2 cells were maintained in Eagle's minimal essential media supplemented with glutamine, gentamicin, penicillin G, and 10% fetal bovine serum (FBS).\nPlaque assay. Two-day-old HEp-2 monolayers, 80% confluent in 12-well plates (Costar, Cambridge, Mass.) were used for plaque assay. The assay was done as previously described (Graham et al., 1988).\nLovastatin eliminates RSV replication in HEp-2 cells. Next, the inventors asked whether lovastatin could alter RSV replication in cell culture. HEp-2 cells in a 96-well plate were treated with either 10 μM lovastatin or left untreated beginning 24 hr prior to RSV infection. […]"}, "[8]": {"conditions": "5 μM, beginning 24 hr prior to infection, MOI 0.1, two days post infection"}, "[9]": {"conditions": "10 μM lovastatin beginning 24 hr prior to infection, MOI 0.1"}},
  "note": "Where “and” joins values, the source holds several entries; their conditions need not be identical. Identical values can stand only once. Entries after “also recorded” stand apart in the source; their conditions may differ.",
  "data": [
    {"compound": "RhoA77-95: peptide comprising the sequence of amino acids 77-95 of RhoA (TDVILMCFSIDSPDSLENI; UniProt P61586 77-95, looked up, fragment)", "values": [
      {"measurement": "HIV infection and syncytia formation", "setting": "HIV", "value": "inhibit both infection and syncytia formation"}
    ]},
    {"compound": "Cc1ccc(C)c(OCCCC(C)(C)C(=O)O)c1", "note": "[gemfibrozil]", "values": [
      {"measurement": "inhibition of RSV replication in mice", "setting": "RSV [1]; 50 mg/day gemfibrozil oral gavage (FIG. 1)", "value": "does not inhibit RSV replication"},
      {"measurement": "peak RSV titer in the lung", "setting": "RSV [1]", "value": "6.5+/−0.43 log10 pfu/gm"},
      {"measurement": "peak percent weight loss on day 8 post infection", "setting": "RSV [2]", "value": 40, "unit": "%"},
      {"measurement": "effect on vaccinia replication", "setting": "vaccinia virus", "value": "not effected"},
      {"measurement": "weight loss in uninfected mice", "setting": "[3]", "value": "no significant weight loss"}
    ]},
    {"compound": "CC(C)=CCC/C(C)=C/CC/C(C)=C/COP(=O)(O)OP(=O)(O)O", "note": "[farnesylpyrophosphate]", "values": [
      {"measurement": "rescue of lovastatin inhibition of HPIV-3 replication", "setting": "HPIV-3 [4]", "value": "partially restores"},
      {"measurement": "rescue of lovastatin inhibition of HPIV-3 syncytia formation", "setting": "HPIV-3 [5]", "value": "does not rescue the inhibition"}
    ]},
    {"compound": "COC(=O)[C@H](CC(C)C)NC(=O)c1ccc(NC[C@@H](N)CS)cc1-c1cccc2ccccc12", "note": "[GGTI-298]", "values": [
      {"measurement": "reduction of HPIV-3 replication", "setting": "HPIV-3 [4]", "value": 100, "unit": "fold"},
      {"measurement": "HPIV-3-induced syncytia formation", "setting": "HPIV-3 [5]; [8]", "value": "blocked"}
    ]},
    {"compound": "CC(C)CCC[C@@H](C)[C@H]1CC[C@H]2[C@@H]3CC=C4C[C@@H](O)CC[C@]4(C)[C@H]3CC[C@]12C", "note": "[cholesterol]", "values": [
      {"measurement": "rescue of lovastatin inhibition of HPIV-3 replication", "setting": "HPIV-3 [4]", "value": "cannot rescue the inhibition"}
    ]},
    {"compound": "CC[C@H](C)C(=O)O[C@H]1C[C@@H](C)C=C2C=C[C@H](C)[C@H](CC[C@@H]3C[C@@H](O)CC(=O)O3)[C@H]21", "note": "[lovastatin]", "values": [
      {"measurement": "reduction in RSV viral titer", "setting": "RSV [1]; 1 mg/day lovastatin beginning 1 day after RSV infection", "value": 10, "unit": "fold"},
      {"measurement": "reduction in RSV viral titer compared to untreated mice", "setting": "RSV [1]; 1 mg/day lovastatin beginning 3 days after infection", "value": "no reduction"},
      {"measurement": "RSV viral titer in the lung on day 4", "setting": "RSV [1]; 1 mg/day lovastatin beginning 3 days prior to infection", "value": "3.8+/−0.48 log10 pfu/gm"},
      {"measurement": "reduction in RSV viral titer in lung compared to untreated mice", "setting": "RSV [1]; 1 mg/day lovastatin beginning 3 days prior to infection, day 4", "value": "> 100 fold and 100- to 1000 fold"},
      {"measurement": "reduction of RSV replication", "setting": "RSV [1]; 1 mg/day lovastatin oral gavage beginning three days prior to infection, vs PBS/gemfibrozil (FIG. 1)", "value": "~100", "unit": "fold"},
      {"measurement": "RSV viral titer in the lung on day 4", "setting": "RSV [1]; 1 mg/day lovastatin starting 3 days after RSV infection", "value": "6.3+/−1.1 log10 pfu/gm"},
      {"measurement": "inhibition of RSV replication, dose response", "setting": "RSV [1]; C57BL6 mice, 1 mg/day and 5 mg/day within 0.5 to 20 mg/day dose response", "value": "inhibited RSV replication equivalently"},
      {"measurement": "peak RSV titer in the lung", "setting": "RSV [1]", "value": "4.7+/−0.4 log10 pfu/gm"},
      {"measurement": "HPIV-3 replication", "setting": "HPIV-3 [4]; [9]", "value": "completely blocks"},
      {"measurement": "reverse transcriptase activity in H9 cells infected with HIV-1", "setting": "HIV-1", "value": "decrease in reverse transcriptase activity"},
      {"measurement": "diminution of virus-induced cell-to-cell fusion", "setting": "[6]", "value": "greater than 50%"},
      {"measurement": "fusion events per well", "setting": "[6]", "value": "75+/−11 fusion events per well"},
      {"measurement": "peak weight loss 8 days post infection", "setting": "RSV [2]; 1 mg/day lovastatin 1 day post infection", "value": 22, "unit": "%"},
      {"measurement": "peak weight loss 8 days post infection", "setting": "RSV [2]; 1 mg/day lovastatin 1 day prior to infection", "value": 19, "unit": "%"},
      {"measurement": "peak percent weight loss at 8 days post infection", "setting": "RSV [2]; 1 mg/day lovastatin 3 days after RSV infection", "value": "about 30%"},
      {"measurement": "peak weight loss 8 days post infection", "setting": "RSV [2]; 1 mg/day lovastatin 3 days prior to infection", "value": 17, "unit": "%"},
      {"measurement": "peak percent weight loss on day 8 post infection", "setting": "RSV [2]", "value": 19, "unit": "%"},
      {"measurement": "RSV-induced illness", "setting": "RSV [2]; lovastatin treatment, data not shown", "value": "reduces RSV-induced illness"},
      {"measurement": "effect on vaccinia replication", "setting": "vaccinia virus", "value": "not effected; also recorded: does not inhibit vaccinia virus replication"},
      {"measurement": "HPIV-3-induced syncytia formation", "setting": "HPIV-3 [5]; [9]", "value": "blocked"},
      {"measurement": "weight loss in uninfected mice", "setting": "[3]", "value": "no significant weight loss"},
      {"measurement": "RSV replication in HEp-2 cells", "setting": "RSV [7]; 10 μM lovastatin beginning 24 hr prior to RSV infection (moi 0.1), titer for 8 days", "value": "completely inhibited"}
    ]},
    {"compound": "CC(C)=CCC/C(C)=C/CC/C(C)=C/CC/C(C)=C/COP(=O)(O)OP(=O)(O)O", "note": "[geranylgeranylpyrophosphate]", "values": [
      {"measurement": "rescue of lovastatin inhibition of HPIV-3 replication", "setting": "HPIV-3 [4]", "value": "rescues the inhibition"},
      {"measurement": "rescue of lovastatin inhibition of HPIV-3 syncytia formation", "setting": "HPIV-3 [5]", "value": "rescues the inhibition"}
    ]},
    {"compound": "COC(=O)[C@H](CCSC)NC(=O)c1ccc(NC[C@@H](N)CS)cc1-c1ccccc1", "note": "[FTI-277]", "values": [
      {"measurement": "reduction of HPIV-3 replication", "setting": "HPIV-3 [4]", "value": 10, "unit": "fold"},
      {"measurement": "HPIV-3-induced syncytia formation", "setting": "HPIV-3 [5]; [8]", "value": "does not inhibit"}
    ]},
    {"compound": "C[C@@]1(O)CCOC(=O)C1", "note": "[mevalonolactone]", "values": [
      {"measurement": "rescue of lovastatin inhibition of HPIV-3 replication", "setting": "HPIV-3 [4]", "value": "rescues the inhibition"},
      {"measurement": "rescue of lovastatin inhibition of HPIV-3 syncytia formation", "setting": "HPIV-3 [5]", "value": "rescues the inhibition"},
      {"measurement": "rescue of lovastatin inhibition of RSV replication", "setting": "RSV [7]; 10 μM lovastatin for 24 hr followed by 20 μM mevalonolactone", "value": "can be rescued"}
    ]}
  ]
}
